# Experimental data: article PMC5824344 (ACS Chemical Biology, 2017)
# Entries after “also recorded” stand apart in the source; their conditions may differ.
# Tested on: HCV (JFH-1) in Huh7.5 cells
# Test: HCV antiviral assay in Huh7.5 cells (infectious titer by TCID50 assay)
# Type: cell-based, hepatitis C virus
# Conditions: MOI 2, 96 h, titration of 4 or 50 µm of 3
# Protocol: Supplemental Figure 3: Antiviral activity of 4 in human hepatoma Huh7.5 cell line.
# (A) Huh7.5 cells were infected with DENV (serotype 2, strain 16681, multiplicity of infection = 0.1) and treated with a titration of ToP-DNJ 4 or 50 µm of tocopherol 3 for 48 h. Infectious virus titer was measured by plaque assay on LLC-MK2 cells. Counts were normalized to 100% for untreated samples.
# DENV eﬀect at the concentrations tested. (B) Huh7.5 cells were infected with HCV (JFH-1, multiplicity of infection = 2) and treated with a titration of ToP-DNJ 4 or 50 µm tocopherol 3 for 96 h. Infectious virus titer was measured by TCID50 assay on […]
# tested. In both panels, each data point represent the mean of triplicates, with error bars showing standard error of the mean (GraphPad Prism). […]
# Huh7.5 cells were seeded in a 96-well plate at a density of 5× 10^3 cells/well in 100 µL growth media. […] The supernatant was harvested, and infectious viral titre assessed immediately in the TCID50 assay.
# Huh7.5 cells were seeded in a 96-well plate at a density of 2× 10^4 cells/well in 100 µL of growth media and incubated for 18 h. The supernatants to be evaluated were diluted 1:10 in growth media, and 7 serial half-log10 dilutions were subsequently prepared in the same media. […]
# each well was scored as either positive (≥ 5 stained cells) or negative. TCID50 values were calculated according to the method of Reed and Muench.8 […]
structure (smiles),measurement,value
"Cc1c(C)c2c(c(C)c1OCCCCCN1CC(O)C(O)C(O)C1CO)CCC(C)(CCCC(C)CCCC(C)CCCC(C)C)O2 (stereo not shown) [Compound 4, 5′-tocopheroxypentyl-DNJ]",anti-HCV effect (infectious virus titer),neither an anti-DENV nor anti-HCV effect was observed; also recorded: Neither 4 nor 3 showed an anti-HCV eﬀect
